For 42 compounds, EC50 results are on record in BindingDB's records for doi:10.7270/Q2TX3CTT (Broad Institute, 2010).

Where a name gives a salt, the structure may show the parent alone.

Glycogen synthase kinase-3 beta, sequence (P49841 whole entry): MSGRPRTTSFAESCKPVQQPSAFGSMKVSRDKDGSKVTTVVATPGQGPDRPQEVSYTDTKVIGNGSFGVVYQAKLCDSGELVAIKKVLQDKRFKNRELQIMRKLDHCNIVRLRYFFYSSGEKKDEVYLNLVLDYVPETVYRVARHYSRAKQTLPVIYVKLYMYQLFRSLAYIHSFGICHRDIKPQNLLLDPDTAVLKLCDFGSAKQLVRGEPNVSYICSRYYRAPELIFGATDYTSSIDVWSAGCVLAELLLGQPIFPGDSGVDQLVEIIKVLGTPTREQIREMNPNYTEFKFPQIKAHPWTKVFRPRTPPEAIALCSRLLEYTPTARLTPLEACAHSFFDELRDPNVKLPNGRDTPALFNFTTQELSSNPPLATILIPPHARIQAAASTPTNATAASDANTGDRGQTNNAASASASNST

This experiment concerns the target Glycogen synthase kinase-3 beta (Homo sapiens, UniProt P49841). The experiment can be described thus: concentration-response blocking of human GSK3B – biochemical, luminescence, cell-free homogeneous, retest, dose response (AID 434954).
Regarding `N#Cc1c(O)nc(SCC(=O)Nc2ccc(OC(F)(F)Cl)cc2)nc1-c1ccccc1` [N-{4-[chloro(difluoro)methoxy]phenyl}-2-[(5-cyano-6-oxo-4-phenyl-1,6-dihydropyrimidin-2-yl)thio]acetamide], the EC50 was more than 300 µM.
The same measure for `COc1ccc(C(=O)ON=C(C)c2ccccc2)cc1` [SMR000159704]: 20.9 µM; for `CN(C)CC(=O)N1c2ccccc2Sc2ccc(Cl)cc21`: more than 300 µM; for `COc1ccc(OC)c(C=NNC(=O)CCc2c(C)n[nH]c2C)c1` [MLS000769019]: more than 300 µM.
To `C=CCNc1nc(N)c([N+](=O)[O-])c(Nc2cccc(Cl)c2)n1` [N4-(3-chlorophenyl)-5-nitro-N2-prop-2-enyl-pyrimidine-2,4,6-triamine] belongs 11.8 µM; to `O=[N+]([O-])c1cc(-c2nc(-c3ccncc3)no2)ccc1Cl` [MLS000331762], more than 300 µM; to `Nc1nc(NCc2ccco2)nc(NCCO)c1[N+](=O)[O-]`, more than 300 µM.
The same measure for `COc1ccc(-n2c(=O)c3c4c(sc3n3c(=S)[nH]nc23)CCC4)cc1` [1-Mercapto-4-(4-methoxy-phenyl)-7,8-dihydro-4H,6H-9-thia-2,3,4,9b-tetraaza-cyclopenta[b]-as-indace n-5-one]: 61.7 µM; for `CCN1CCN(CCCNC(=O)c2ccc3c(c2)NC(=O)/C(=C\c2cccc(C)c2)S3)CC1` [(2E)-N-[3-(4-ethyl-1-piperazinyl)propyl]-2-[(3-methylphenyl)methylidene]-3-oxo-4H-1,4-benzothiazine-6-carboxamide]: 16.1 µM; for `Nc1nonc1-n1nnc(C(=O)NN=Cc2c(Cl)cccc2Cl)c1CN1CCOCC1` [1-(4-azanyl-1,2,5-oxadiazol-3-yl)-N-[[2,6-bis(chloranyl)phenyl]methylideneamino]-5-(morpholin-4-ylmethyl)-1,2,3-triazole-4-carboxamide]: 55.2 µM.
As for `COC(=O)C1=C(C)N(Cc2ccccc2)C(NCc2ccc(OC)cc2)=N[C@H]1c1cccc(F)c1` [MLS000829932], the EC50 is more than 300 µM.
The same measure for `COc1ccc2nc(NC(=O)CSc3nnc(N)[nH]3)sc2c1` [MLS001138435]: 3.11 µM.
Consider `O=C(NC1CCCCC1)C(c1ccc(F)cc1)N(Cc1ccccc1)C(=O)CN1C(=O)c2ccccc2S1(=O)=O` (configuration not stated) [N-cyclohexyl-2-(4-fluorophenyl)-2-[[1-oxo-2-(1,1,3-trioxo-1,2-benzothiazol-2-yl)ethyl]-(phenylmethyl)amino]acetamide], for which the EC50 is more than 300 µM.
The compound `Cc1cc(C)n(S(=O)(=O)c2ccc(C)c(C)c2)n1` [SMR000515396] yielded an EC50 of more than 300 µM.
To `CCN1CCc2c(sc(NC(=O)Cc3ccccc3)c2C(N)=O)C1` [6-ethyl-2-[(1-oxo-2-phenylethyl)amino]-5,7-dihydro-4H-thieno[2,3-c]pyridine-3-carboxamide;hydrochloride] belongs more than 300 µM.
As for `C[C@]12C=CC(=O)C=C1CC[C@@H]1C2C(O)C[C@@]2(C)C1CC[C@]2(O)C(=O)COC(=O)CCC(=O)O` (stereo partly drawn) [4-[2-[(8S,10R,11S,13S,17R)-11,17-dihydroxy-10,13-dimethyl-3-oxo-7,8,9,11,12,14,15,16-octahydro-6H-cyclopenta[a]phenanthren-17-yl]-2-oxoethoxy]-4-oxobutanoic acid], the EC50 is more than 300 µM.
The same measure for `Cc1cc(C)c2nc(N(CCN(C)C)C(=O)c3ccc(S(=O)(=O)N(C)CC4CCCO4)cc3)sc2c1` (configuration not stated) [MLS001239556]: more than 300 µM; for `O=NCc1cn(-c2ccccc2)nc1-c1cccnc1` [N-[(1-phenyl-3-pyridin-3-ylpyrazol-4-yl)methylidene]hydroxylamine]: 6.45 µM; for `CC(C(=O)NCc1ccco1)n1cc([N+](=O)[O-])cn1` (configuration not stated) [N-(2-furylmethyl)-2-(4-nitro-1H-pyrazol-1-yl)propanamide]: more than 300 µM.
`CC1CCN(C(=O)CSc2nc(N)c3c4c(sc3n2)CN(C)CC4)CC1` [2-[(4-azanyl-7-methyl-6,8-dihydro-5H-pyrido[4,5]thieno[1,2-c]pyrimidin-2-yl)sulfanyl]-1-(4-methylpiperidin-1-yl)ethanone] registered a concentration for a half-maximal effect (EC50) of more than 300 µM.
With `CCCCCc1cc(O)c2c(C)cc(=O)oc2c1` [5-hydroxy-4-methyl-7-pentyl-1-benzopyran-2-one], the EC50 was more than 300 µM.
Take `O=C(NCc1ccncc1)C1CCC(=O)N(CCc2ccc(Cl)cc2)C1` (configuration not stated) [MLS001100847]: the EC50 is more than 300 µM.
For `COC(=O)CSc1nnc(-c2ccncc2)o1` [methyl 2-[(5-pyridin-4-yl-1,3,4-oxadiazol-2-yl)sulfanyl]ethanoate], the EC50 was more than 300 µM.
To `COc1cc(C2C3=C(CC(C)(C)CC3=O)N=C(C)C2C#N)ccc1O` (configuration not stated) [4-(4-hydroxy-3-methoxyphenyl)-2,7,7-trimethyl-5-oxo-1,4,6,8-tetrahydroquinoline-3-carbonitrile] belongs more than 300 µM; to `Cn1cc(S(=O)(=O)NCc2ccc(F)cc2)c(=O)n(C)c1=O`, more than 300 µM.
In turn, `Brc1ccc(CSc2nnc(-c3cccnc3)o2)cc1` [SMR000292494] returned an EC50 of more than 300 µM.
As to `CN1CCc2c(sc3c2c(=O)n(-c2ccccc2)c2n[nH]c(=S)n32)C1` [MLS000558136], the response was half-maximal at 21.7 µM (EC50).
In turn, `COc1ccc2oc3cc(C)[n+]([O-])c(-c4ccc(Cl)cc4)c3c2c1` [MLS000588178] returned an EC50 of 12.7 µM.
The same measure for `Cn1c(=O)[nH]c(=O)c2c1nc(Br)n2Cc1ccccc1Cl` [MLS000031623]: more than 300 µM.
As for `COc1ccccc1/C=C1\C(=O)Nc2ccccc21` [SMR000523491], the EC50 is more than 300 µM.
In turn, `N#Cc1c(N)nc2c(c1-c1ccc(F)cc1)CCC2` came in with an EC50 of more than 300 µM.
`O=C(O)c1cccc(-c2ccc(CN=Nc3ccc([N+](=O)[O-])cc3)o2)c1` [MLS000777078] displayed a half-maximal effective concentration (EC50) of more than 300 µM.
To `Oc1ccc(N2CCN(C(=S)NCCc3ccccc3)CC2)cc1` [SMR000199335] belongs more than 300 µM; to `Cc1cccc2cc3c(NC(=O)C(C)(C)C)nn(CC(C)C)c3nc12`, more than 300 µM.
In turn, `Cc1cccc(Nc2nc(NCCCN3CCOCC3)nc(N)c2[N+](=O)[O-])c1` [N4-(3-methylphenyl)-N2-(3-morpholin-4-ylpropyl)-5-nitro-pyrimidine-2,4,6-triamine] yielded an EC50 of 1.72 µM.
Take `COc1cccc(C(=O)CC(C#N)c2ccc(F)cc2)c1` (configuration not stated) [MLS001165246]: the EC50 is more than 300 µM.
The same measure for `COc1ccccc1N1CCN(CCCNC(=O)C2CCCN(c3ncnc4c3nc3n4CCCCC3)C2)CC1` (configuration not stated) [N-[3-[4-(2-methoxyphenyl)piperazin-1-yl]propyl]-1-(7,8,9,10-tetrahydro-6H-purino[9,8-a]azepin-4-yl)piperidine-3-carboxamide]: 156 µM.
The same measure for `c1ccc(CNc2nc(-c3cccnc3)nc3ccccc23)cc1`: more than 300 µM; for `COc1cc(/C=N/NC(=O)c2ccc(Cl)cc2)ccc1Oc1ccc([N+](=O)[O-])cn1`: more than 300 µM; for `COc1ccc2cc(C(=O)CS(=O)(=O)c3ccccc3)c(=O)oc2c1` [3-[2-(benzenesulfonyl)acetyl]-7-methoxychromen-2-one]: more than 300 µM.
In turn, `CN(C)Cc1ccc(-c2nc3cccc4c3n2CCNC4=O)cc1` had an EC50 of 27.5 µM.
`CCNc1nc(N)c(C(=O)c2ccc(Cl)s2)s1` [[4-amino-2-(ethylamino)-1,3-thiazol-5-yl]-(5-chlorothiophen-2-yl)methanone]: the EC50 was 0.174 µM.
